The record followed here is article PMC10004634 (PLOS ONE, 2023).

Where two headings read alike, the source gives them in different places.

Among the targets are BTK (Homo sapiens, UniProt Q06187); CDK8 (Homo sapiens, UniProt P49336); CHEK1 (Homo sapiens, UniProt O14757); CHEK2 (Homo sapiens, UniProt O96017); FGFR3(G697C) (Homo sapiens, UniProt P22607, G697C); IRAK4 (Homo sapiens, UniProt Q9NWZ3); MAP3K4 (Homo sapiens, UniProt Q9Y6R4); MYO3A (Homo sapiens, UniProt Q8NEV4); PAK3 (Homo sapiens, UniProt O75914); PIK3C2B (Homo sapiens, UniProt O00750); PIK3CA(M1043I) (Homo sapiens, UniProt P42336, M1043I); PIP5K1A (Homo sapiens, UniProt Q99755); SRPK2 (Homo sapiens, UniProt P78362); NEK1 (Homo sapiens, UniProt Q96PY6); ACVRL1 (Homo sapiens, UniProt P37023).

What all share (assay): biochemical
What all share (design): KINOMEscan scanMAX competition binding, DNA-tagged kinases, qPCR read-out, percent control at 300 nM
In general terms: Real-time PCR tracks product formation cycle by cycle.

In assay [1] the target is T1, ABL1(E255K)-phosphorylated (Homo sapiens, UniProt P00519, E255K).
T1 construct: phosphorylated

Assay [2] deals with T2, ABL1(H396P)-nonphosphorylated (Homo sapiens, UniProt P00519, H396P).
T2 construct: nonphosphorylated

For the next assay, the target named is T3, ASK2 (Homo sapiens, UniProt O95382).
T3 construct: gene MAP3K6
T3 sequence (O95382 whole entry): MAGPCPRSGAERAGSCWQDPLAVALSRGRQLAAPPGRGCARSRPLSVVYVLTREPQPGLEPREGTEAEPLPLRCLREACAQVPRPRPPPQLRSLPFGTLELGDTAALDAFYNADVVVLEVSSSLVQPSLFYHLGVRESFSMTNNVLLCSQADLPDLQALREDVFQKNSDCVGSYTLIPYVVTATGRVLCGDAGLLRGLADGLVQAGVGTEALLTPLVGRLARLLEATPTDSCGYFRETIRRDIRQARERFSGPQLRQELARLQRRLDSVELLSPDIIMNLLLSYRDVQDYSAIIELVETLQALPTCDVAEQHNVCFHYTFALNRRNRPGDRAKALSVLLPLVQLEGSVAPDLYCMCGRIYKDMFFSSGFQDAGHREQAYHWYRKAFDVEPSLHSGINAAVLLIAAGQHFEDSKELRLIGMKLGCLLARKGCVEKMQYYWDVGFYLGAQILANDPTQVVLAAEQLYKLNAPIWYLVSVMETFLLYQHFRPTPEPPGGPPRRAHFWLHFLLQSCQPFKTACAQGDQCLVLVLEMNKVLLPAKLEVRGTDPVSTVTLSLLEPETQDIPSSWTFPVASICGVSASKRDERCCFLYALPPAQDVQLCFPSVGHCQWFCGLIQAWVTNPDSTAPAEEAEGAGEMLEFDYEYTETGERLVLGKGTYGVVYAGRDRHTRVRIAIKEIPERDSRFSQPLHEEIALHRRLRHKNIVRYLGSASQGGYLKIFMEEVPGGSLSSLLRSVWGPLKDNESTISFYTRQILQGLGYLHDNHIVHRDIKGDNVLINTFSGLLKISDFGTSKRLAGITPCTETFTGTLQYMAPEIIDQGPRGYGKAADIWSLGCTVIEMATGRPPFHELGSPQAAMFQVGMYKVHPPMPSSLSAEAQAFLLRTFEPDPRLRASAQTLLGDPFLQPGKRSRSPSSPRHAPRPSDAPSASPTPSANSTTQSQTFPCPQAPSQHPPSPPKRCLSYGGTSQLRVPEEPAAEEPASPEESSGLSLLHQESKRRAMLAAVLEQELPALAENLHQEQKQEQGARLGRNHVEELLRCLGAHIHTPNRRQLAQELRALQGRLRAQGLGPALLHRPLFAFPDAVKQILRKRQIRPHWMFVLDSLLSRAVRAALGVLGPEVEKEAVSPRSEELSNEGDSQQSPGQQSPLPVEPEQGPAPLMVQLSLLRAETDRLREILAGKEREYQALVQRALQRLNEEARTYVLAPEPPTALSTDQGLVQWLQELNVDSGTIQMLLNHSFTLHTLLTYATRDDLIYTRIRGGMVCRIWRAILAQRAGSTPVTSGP

A further assay deals with T4, ERK8 (Homo sapiens, UniProt Q8TD08).
T4 construct: gene MAPK15
T4 sequence (Q8TD08 whole entry): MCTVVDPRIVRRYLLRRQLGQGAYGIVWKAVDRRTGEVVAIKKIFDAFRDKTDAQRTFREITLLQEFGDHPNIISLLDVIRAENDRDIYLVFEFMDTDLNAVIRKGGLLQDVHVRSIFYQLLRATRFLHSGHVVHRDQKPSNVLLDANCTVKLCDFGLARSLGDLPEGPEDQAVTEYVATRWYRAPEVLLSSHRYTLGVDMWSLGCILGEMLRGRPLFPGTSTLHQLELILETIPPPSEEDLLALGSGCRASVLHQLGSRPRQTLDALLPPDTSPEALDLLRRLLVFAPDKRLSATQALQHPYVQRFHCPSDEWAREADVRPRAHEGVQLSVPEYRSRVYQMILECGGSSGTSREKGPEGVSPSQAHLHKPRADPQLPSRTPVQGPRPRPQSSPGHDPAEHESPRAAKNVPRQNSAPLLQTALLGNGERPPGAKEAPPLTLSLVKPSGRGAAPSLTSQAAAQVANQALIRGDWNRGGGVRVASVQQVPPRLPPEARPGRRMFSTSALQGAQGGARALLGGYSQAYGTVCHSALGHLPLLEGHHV

In the next assay the target is T5, NDR1 (Homo sapiens, UniProt Q15208).
T5 construct: gene STK38

The target of the next assay is T6, PCTK3 (Homo sapiens, UniProt Q07002).
T6 construct: gene CDK18

Another assay concerns the target T7, p38-beta (Homo sapiens, UniProt Q15759).
T7 construct: gene MAPK11

In another assay the target is T8, DCAMKL3 (Homo sapiens, UniProt Q9C098).
T8 construct: gene DCLK3

The mark [3] stands for this setting: read-out: Percent control / Acalabrutinib.
Setting [4] is: read-out: Percent control / Ibrutinib.
Setting [5] is: read-out: Percent control / Tirabrutinib.
Setting [6] is: read-out: Percent control / Zanubrutinib.

Sequence of PIK3CA(M1043I) (P42336 whole entry M1043I): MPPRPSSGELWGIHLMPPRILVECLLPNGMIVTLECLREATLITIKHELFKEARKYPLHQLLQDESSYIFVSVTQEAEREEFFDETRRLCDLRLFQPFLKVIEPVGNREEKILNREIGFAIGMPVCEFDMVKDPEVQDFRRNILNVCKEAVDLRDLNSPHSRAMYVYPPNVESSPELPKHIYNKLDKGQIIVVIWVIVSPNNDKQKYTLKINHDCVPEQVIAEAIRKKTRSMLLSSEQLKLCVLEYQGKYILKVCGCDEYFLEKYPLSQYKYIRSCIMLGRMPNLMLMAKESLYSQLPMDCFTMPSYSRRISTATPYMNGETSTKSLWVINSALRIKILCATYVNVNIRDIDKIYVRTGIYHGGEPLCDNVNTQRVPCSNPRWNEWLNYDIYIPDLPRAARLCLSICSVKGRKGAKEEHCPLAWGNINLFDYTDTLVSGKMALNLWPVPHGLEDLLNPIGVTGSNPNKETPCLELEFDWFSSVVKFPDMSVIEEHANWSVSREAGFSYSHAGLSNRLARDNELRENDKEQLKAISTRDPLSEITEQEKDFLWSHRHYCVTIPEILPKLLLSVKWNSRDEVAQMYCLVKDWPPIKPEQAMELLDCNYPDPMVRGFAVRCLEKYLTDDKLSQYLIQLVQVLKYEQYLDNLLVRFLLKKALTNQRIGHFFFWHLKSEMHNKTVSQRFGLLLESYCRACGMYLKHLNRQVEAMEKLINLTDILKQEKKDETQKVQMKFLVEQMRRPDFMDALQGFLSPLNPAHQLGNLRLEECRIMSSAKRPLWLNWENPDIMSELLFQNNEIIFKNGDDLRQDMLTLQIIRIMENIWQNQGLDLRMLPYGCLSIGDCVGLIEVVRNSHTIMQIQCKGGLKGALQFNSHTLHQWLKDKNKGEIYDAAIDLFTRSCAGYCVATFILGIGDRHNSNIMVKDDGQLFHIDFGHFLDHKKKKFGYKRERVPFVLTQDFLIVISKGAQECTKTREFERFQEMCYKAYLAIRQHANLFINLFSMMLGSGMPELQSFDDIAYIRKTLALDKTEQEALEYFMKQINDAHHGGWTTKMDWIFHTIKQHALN
Sequence of CHEK2 (O96017 whole entry): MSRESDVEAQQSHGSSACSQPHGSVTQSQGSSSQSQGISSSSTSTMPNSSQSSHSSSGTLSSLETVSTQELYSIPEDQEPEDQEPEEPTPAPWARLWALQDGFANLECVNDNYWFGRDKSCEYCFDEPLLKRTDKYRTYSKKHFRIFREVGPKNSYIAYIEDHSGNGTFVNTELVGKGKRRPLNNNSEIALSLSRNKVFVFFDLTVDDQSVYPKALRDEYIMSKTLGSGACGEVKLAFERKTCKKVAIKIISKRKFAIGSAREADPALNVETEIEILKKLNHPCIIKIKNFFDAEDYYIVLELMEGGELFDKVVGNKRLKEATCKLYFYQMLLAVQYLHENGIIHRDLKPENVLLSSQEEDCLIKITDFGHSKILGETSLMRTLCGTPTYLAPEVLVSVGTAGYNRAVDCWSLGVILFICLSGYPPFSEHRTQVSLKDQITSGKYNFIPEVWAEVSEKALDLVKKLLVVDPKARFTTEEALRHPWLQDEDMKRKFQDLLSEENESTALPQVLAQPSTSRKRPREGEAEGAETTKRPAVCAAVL
Sequence of MYO3A (Q8NEV4 whole entry): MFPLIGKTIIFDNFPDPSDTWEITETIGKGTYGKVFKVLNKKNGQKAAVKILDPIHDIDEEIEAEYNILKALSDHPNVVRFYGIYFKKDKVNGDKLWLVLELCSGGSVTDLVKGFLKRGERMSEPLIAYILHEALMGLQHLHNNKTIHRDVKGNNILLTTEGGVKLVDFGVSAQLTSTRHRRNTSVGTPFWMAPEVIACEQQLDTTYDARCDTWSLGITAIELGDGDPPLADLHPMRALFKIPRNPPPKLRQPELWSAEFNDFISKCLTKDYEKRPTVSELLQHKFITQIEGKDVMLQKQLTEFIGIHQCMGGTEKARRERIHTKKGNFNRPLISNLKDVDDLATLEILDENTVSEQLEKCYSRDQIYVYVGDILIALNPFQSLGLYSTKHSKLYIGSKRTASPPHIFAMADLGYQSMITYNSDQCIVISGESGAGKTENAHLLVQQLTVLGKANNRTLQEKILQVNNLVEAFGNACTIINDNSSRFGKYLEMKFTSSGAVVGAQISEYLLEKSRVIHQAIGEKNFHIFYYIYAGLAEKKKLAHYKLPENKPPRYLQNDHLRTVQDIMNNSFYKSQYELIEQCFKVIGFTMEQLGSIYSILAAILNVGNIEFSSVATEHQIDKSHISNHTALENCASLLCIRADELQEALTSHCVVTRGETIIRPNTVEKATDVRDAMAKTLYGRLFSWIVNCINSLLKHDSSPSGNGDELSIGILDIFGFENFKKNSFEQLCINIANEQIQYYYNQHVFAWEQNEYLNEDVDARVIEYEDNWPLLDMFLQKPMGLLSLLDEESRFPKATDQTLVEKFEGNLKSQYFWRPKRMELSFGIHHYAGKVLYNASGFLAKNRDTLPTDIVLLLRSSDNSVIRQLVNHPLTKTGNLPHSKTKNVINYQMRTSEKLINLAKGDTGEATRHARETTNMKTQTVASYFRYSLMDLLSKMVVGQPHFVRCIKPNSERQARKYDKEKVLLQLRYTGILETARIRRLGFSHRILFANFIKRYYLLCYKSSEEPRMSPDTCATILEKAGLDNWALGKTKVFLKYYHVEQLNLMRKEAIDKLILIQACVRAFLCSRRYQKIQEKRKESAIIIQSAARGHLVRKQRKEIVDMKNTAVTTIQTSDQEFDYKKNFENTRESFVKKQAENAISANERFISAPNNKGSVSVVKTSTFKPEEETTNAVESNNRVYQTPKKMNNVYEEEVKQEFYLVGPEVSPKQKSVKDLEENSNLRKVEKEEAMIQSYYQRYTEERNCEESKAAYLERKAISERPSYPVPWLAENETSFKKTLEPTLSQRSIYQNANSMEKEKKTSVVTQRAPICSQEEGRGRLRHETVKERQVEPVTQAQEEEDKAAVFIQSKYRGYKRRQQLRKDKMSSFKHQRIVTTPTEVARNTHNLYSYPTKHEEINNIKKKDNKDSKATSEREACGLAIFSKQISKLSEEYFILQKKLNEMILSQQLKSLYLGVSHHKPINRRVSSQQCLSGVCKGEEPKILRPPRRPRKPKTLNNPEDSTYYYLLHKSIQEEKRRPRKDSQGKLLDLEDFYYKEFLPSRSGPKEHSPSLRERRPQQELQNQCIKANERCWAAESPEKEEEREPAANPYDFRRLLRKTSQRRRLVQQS

Turning to `CC#CC(=O)N1CCC[C@H]1c1nc(-c2ccc(C(=O)Nc3ccccn3)cc2)c2c(N)nccn12` [Acalabrutinib], the remaining binding at 0.3 µM in [1] (setting [3]) turned out to be 95%; in assay [2] (setting [3]), 85%; on ASK2 (setting [3]) it was 87%; on BTK (setting [3]), 0.3%; at CDK8 (setting [3]) it was 93%; on CHEK1 (setting [3]) it was 88%. The remaining binding at 0.3 µM on CHEK2 (setting [3]) stood at 84%; on ERK8 (setting [3]), 88%; on FGFR3(G697C) (setting [3]), 79%; on IRAK4 (setting [3]), 97%; on MAP3K4 (setting [3]), 78%; on MYO3A (setting [3]), 75%. The remaining binding at 0.3 µM is 97% at NDR1 (setting [3]); 77% at PAK3 (setting [3]); 90% at PCTK3 (setting [3]); 93% on PIK3C2B (setting [3]); 90% at PIK3CA(M1043I) (setting [3]); 83% at PIP5K1A (setting [3]). The remaining binding at 0.3 µM at SRPK2 (setting [3]) was 90%.
Regarding `C=CC(=O)N1CCC[C@@H](n2nc(-c3ccc(Oc4ccccc4)cc3)c3c(N)ncnc32)C1` [Ibrutinib], the remaining binding at 0.3 µM was 31% in assay [2] (setting [4]); 77% at FGFR3(G697C) (setting [4]); 96% on MYO3A (setting [4]); 96% at NEK1 (setting [4]); 85% at p38-beta (setting [4]).
Take `CC#CC(=O)N1CC[C@@H](n2c(=O)n(-c3ccc(Oc4ccccc4)cc3)c3c(N)ncnc32)C1` [Tirabrutinib]: the figures for the remaining binding at 0.3 µM at ACVRL1 (setting [5]), at BTK (setting [5]) and on DCAMKL3 (setting [5]) were 94%, 3% and 99%, respectively.
For the molecule `C=CC(=O)N1CCC([C@@H]2CCNc3c(C(N)=O)c(-c4ccc(Oc5ccccc5)cc4)nn32)CC1` [Zanubrutinib], the remaining binding at 0.3 µM worked out at 80% in assay [1] (setting [6]); 75% on ACVRL1 (setting [6]); 55% on ASK2 (setting [6]); 100% at CDK8 (setting [6]); 92% on CHEK1 (setting [6]); 98% on CHEK2 (setting [6]). The remaining binding at 0.3 µM at DCAMKL3 (setting [6]) stood at 100%; at ERK8 (setting [6]), 87%; on IRAK4 (setting [6]), 91%; at MAP3K4 (setting [6]), 75%; at NDR1 (setting [6]), 97%; at NEK1 (setting [6]), 54%. Further, the remaining binding at 0.3 µM was determined as 83% on PAK3 (setting [6]); 92% on PCTK3 (setting [6]); 62% at PIK3C2B (setting [6]); 90% on PIK3CA(M1043I) (setting [6]); 92% at PIP5K1A (setting [6]); 96% at SRPK2 (setting [6]). For the same molecule, the remaining binding at 0.3 µM on p38-beta (setting [6]) worked out at 82%.
